Counter-ions that a name gives are not always drawn.
test system: not given; assay: not given; conditions: not given

SMILES	melting point [°C]
Cc1cc(F)ccc1[C@H]1CN(CC(N)=O)CC[C@@H]1C(=O)N(C)[C@H](C)c1cc(C(F)(F)F)cc(C(F)(F)F)c1.Cl (hydrate or solvate)	133 to 139
Cc1cc(F)ccc1[C@H]1CN(C(=O)c2cncnc2)CC[C@@H]1C(=O)N(C)[C@@H](C)c1cc(C(F)(F)F)cc(C(F)(F)F)c1 (hydrate or solvate) [Example 158, (3S,4S)—N-{(1S)-1-[3,5-bis(trifluoromethyl)phenyl]ethyl}-3-(4-fluoro-2-methylphenyl)-N-methyl-1-(pyrimidin-5-ylcarbonyl)piperidine-4-carboxamide]	185 to 188
Cc1cc(F)ccc1[C@@H]1CN(CCC(C)(C)O)CC[C@H]1C(=O)N(C)Cc1cc(C(F)(F)F)cc(C(F)(F)F)c1 (relative stereo) (as salt: hydrochloride) (hydrate or solvate) [Example 123, (3R*,4R*)—N-[3,5-bis(trifluoromethyl)benzyl]-3-(4-fluoro-2-methylphenyl)-1-(3-hydroxy-3-methylbutyl)-N-methylpiperidine-4-carboxamide monohydrochloride]	126 to 128
CC(=O)Nc1ccc(N2CC[C@@H](C(=O)N(C)Cc3cc(C(F)(F)F)cc(C(F)(F)F)c3)[C@H](c3ccc(F)cc3C)C2)nc1 (relative stereo) (as salt: hydrochloride) (hydrate or solvate) [Example 129, (3R*,4R*)-1-[5-(acetylamino)pyridin-2-yl]-N-[3,5-bis(trifluoromethyl)benzyl]-3-(4-fluoro-2-methylphenyl)-N-methylpiperidine-4-carboxamide monohydrochloride]	213 to 215

Results, then the molecule that gave them:

melting point [°C]	SMILES
108 to 116	Cc1cc(F)ccc1[C@H]1CN(C(=O)C2CCN(C(=O)CO)CC2)CC[C@@H]1C(=O)N(C)[C@@H](C)c1cc(C(F)(F)F)cc(C(F)(F)F)c1 (hydrate or solvate) [Example 152, (3S,4S)—N-{(1S)-1-[3,5-bis(trifluoromethyl)phenyl]ethyl}-3-(4-fluoro-2-methylphenyl)-1-[(1-glycoloylpiperidin-4-yl)carbonyl]-N-methylpiperidine-4-carboxamide]
175 to 176	Cc1cc(F)ccc1[C@@H]1CN(C2CCN(C(=O)C(N)=O)CC2)CC[C@H]1C(=O)N(C)Cc1cc(C(F)(F)F)cc(C(F)(F)F)c1 (relative stereo) (as salt: hydrochloride) (hydrate or solvate) [Example 108, (3R*,4R*)-1′-[amino(oxo)acetyl]-N-[3,5-bis(trifluoromethyl)benzyl]-3-(4-fluoro-2-methylphenyl)-N-methyl-1,4′-bipiperidine-4-carboxamide monohydrochloride]
175 to 178	Cc1cc(F)ccc1[C@@H]1CN(C2CCN(C(N)=O)CC2)CC[C@H]1C(=O)N(C)Cc1cc(C(F)(F)F)cc(C(F)(F)F)c1 (relative stereo) (as salt: hydrochloride) (hydrate or solvate) [Example 109, (3R*,4R*)—N^4-[3,5-bis(trifluoromethyl)benzyl]-3-(4-fluoro-2-methylphenyl)-N^4-methyl-1,4′-bipiperidine-1′,4-dicarboxamide monohydrochloride]
175 to 177	Cc1cc(F)ccc1[C@@H]1CN(CC(N)=O)CC[C@H]1C(=O)N(C)Cc1cc(C(F)(F)F)cc(C(F)(F)F)c1 (relative stereo) (as salt: hydrochloride) (hydrate or solvate) [Example 112, (3R*,4R*)-1-(2-amino-2-oxoethyl)-N-[3,5-bis(trifluoromethyl)benzyl]-3-(4-fluoro-2-methylphenyl)-N-methylpiperidine-4-carboxamide monohydrochloride]
210 to 214	Cc1cc(F)ccc1[C@@H]1CN(CC(=O)NC2CC2)CC[C@H]1C(=O)N(C)Cc1cc(C(F)(F)F)cc(C(F)(F)F)c1 (relative stereo) (as salt: hydrochloride) [Example 103, (3R*,4R*)—N-[3,5-bis(trifluoromethyl)benzyl]-1-[2-(cyclopropylamino)-2-oxoethyl]-3-(4-fluoro-2-methylphenyl)-N-methylpiperidine-4-carboxamide monohydrochloride]
220 to 224	Cc1cc(F)ccc1[C@@H]1CN(CC(=O)N2CCC(O)CC2)CC[C@H]1C(=O)N(C)Cc1cc(C(F)(F)F)cc(C(F)(F)F)c1 (relative stereo) (as salt: hydrochloride) [Example 104, (3R*,4R*)—N-[3,5-bis(trifluoromethyl)benzyl]-3-(4-fluoro-2-methylphenyl)-1-[2-(4-hydroxypiperidin-1-yl)-2-oxoethyl]-N-methylpiperidine-4-carboxamide monohydrochloride]

molecular target: T1, substance P receptor (Homo sapiens, UniProt P25103); assay: Radioligand receptor binding inhibitory activity (125I-BHSP binding, receptor from IM-9 cells); conditions: receptor from human lymphoblast cells (IM-9); radioligand 125I-BHSP; 25° C., 30 min
T1 construct: The receptor was prepared from human lymphoblast cells (IM-9); endogenous in cells; host or cells: IM-9 human lymphoblast cells (membrane fraction, 100,000xG precipitate)
T1 sequence (P25103 whole entry): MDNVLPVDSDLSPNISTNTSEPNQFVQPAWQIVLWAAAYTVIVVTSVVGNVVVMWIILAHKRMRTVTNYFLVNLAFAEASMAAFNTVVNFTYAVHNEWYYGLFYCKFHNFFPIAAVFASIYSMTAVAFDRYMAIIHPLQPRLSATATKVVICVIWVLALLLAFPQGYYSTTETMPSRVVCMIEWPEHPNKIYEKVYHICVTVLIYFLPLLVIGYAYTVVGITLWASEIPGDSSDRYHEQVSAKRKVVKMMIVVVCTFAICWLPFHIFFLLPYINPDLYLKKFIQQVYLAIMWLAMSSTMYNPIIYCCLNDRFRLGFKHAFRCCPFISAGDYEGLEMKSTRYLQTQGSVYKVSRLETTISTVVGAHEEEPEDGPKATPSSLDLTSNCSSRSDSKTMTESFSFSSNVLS
Protocol: Radioligand Receptor Binding Inhibitory Activity (Binding Inhibitory Activity Using Receptor from Human Lymphoblast Cells (IM-9))
The method of M. A. Cascieri et al., “Molecular Pharmacology, vol. 42, p. 458 (1992)” was modified and used. The receptor was prepared from human lymphoblast cells (IM-9).
IM-9 cells (2×10^5 cells/mL) were inoculated and incubated for 3 days, which was then subjected to centrifugation for 10 min. at 500×G to give cell pellets. The obtained pellets were washed with PBS (GIBCO), disrupted in buffer A (50 mM tris.hydrochloric acid buffer (pH 7.4) containing 120 mM sodium chloride, 5 mM potassium chloride, 2 μg/mL chymostatin, 40 μg/mL bacitracin, 40 μg/mL APMSF, 1 mM ethylenediamine tetra acetic acid) using a polytron.homogenizer [manufactured by Kinematika, Germany], and centrifuged at 100,000×G for 40 min. The precipitated fraction was suspended in buffer B (50 mM Tris-HCl (pH 7.4), 0.02% bovine serum albumin, 2 μg/mL chymostatin, 40 μg/mL bacitracin, 40 μg/mL APMSF, 3 mM MgCl2), which was then cryopreserved (−80° C.) as a receptor specimen.
Buffer B (50 μL) was added to a 96 well microassay plate (CORNING). Thereto was added 50 μL of membrane preparation suspended in buffer B at 250 μg/mL. A measurement buffer (50 μL) containing 2% dimethyl sulfoxide was added to examine total binding; 4 μM unlabeled SP (50 μL) diluted with a measurement buffer containing 2% dimethyl sulfoxide was added to examine non-specific binding; and 50 μL of a test compound (containing 2% dimethyl sulfoxide) diluted with a measurement buffer was added to examine binding inhibitory activity of the test compound. In addition, […] ^125I-BHSP solution (50 μL) was added to each well.
After reaction at 25° C. for 30 min, the cells were rapidly filtered through a GF/C filter plate (PerkinElmer) using a cell harvester (manufactured by PerkinElmer) to quench the reaction, and washed 10 times with 250 μL of 50 mM tris-HCl buffer (pH 7.4) containing 0.02% bovine serum albumin. The GF/C filter plate was dried, MicroScinti 0 (20 μL) was added, and the radioactivity was measured with TopCount (manufactured by PerkinElmer). The GF/C filter plate was immersed in 0.3% polyethylene imine for one day before use.
Specific binding is a value obtained by subtracting nonspecific binding from total binding. The binding inhibitory activity of a test compound is shown by a ratio of a value obtained by subtracting a measurement value with addition of a test compound from the total binding, relative to specific binding.
The antagonistic activity of the compounds obtained in the Examples was determined as a concentration necessary for causing 50% inhibition (IC50 value) under the above-described conditions, and the results shown in Table 34 were obtained.
The radio ligand means substance P labeled with [^125I].

SMILES	IC50 [pM]
Cc1cc(F)ccc1[C@H]1CN(C(=O)CN2C(=O)OC(C)(C)C2=O)CC[C@@H]1C(=O)N(C)[C@@H](C)c1cc(C(F)(F)F)cc(C(F)(F)F)c1 [Example 154, (3S,4S)—N-{(1S)-1-[3,5-bis(trifluoromethyl)phenyl]ethyl}-1-[(5,5-dimethyl-2,4-dioxo-1,3-oxazolidin-3-yl)acetyl]-3-(4-fluoro-2-methylphenyl)-N-methylpiperidine-4-carboxamide]	97
Cc1cc(F)ccc1[C@H]1CN(C(=O)c2cncnc2)CC[C@@H]1C(=O)N(C)[C@@H](C)c1cc(C(F)(F)F)cc(C(F)(F)F)c1 [Example 158, (3S,4S)—N-{(1S)-1-[3,5-bis(trifluoromethyl)phenyl]ethyl}-3-(4-fluoro-2-methylphenyl)-N-methyl-1-(pyrimidin-5-ylcarbonyl)piperidine-4-carboxamide]	33
Cc1cc(F)ccc1[C@H]1CN(C(=O)CCS(C)(=O)=O)CC[C@@H]1C(=O)N(C)[C@@H](C)c1cc(C(F)(F)F)cc(C(F)(F)F)c1 [Example 160, (3S,4S)—N-{(1S)-1-[3,5-bis(trifluoromethyl)phenyl]ethyl}-3-(4-fluoro-2-methylphenyl)-N-methyl-1-[3-(methylsulfonyl)propanoyl]piperidine-4-carboxamide]	32
Cc1cc(F)ccc1[C@H]1CN(C(=O)C(N)=O)CC[C@@H]1C(=O)N(C)[C@@H](C)c1cc(C(F)(F)F)cc(C(F)(F)F)c1 [Example 178, (3S,4S)-1-[amino(oxo)acetyl]-N-{(1S)-1-[3,5-bis(trifluoromethyl)phenyl]ethyl}-3-(4-fluoro-2-methylphenyl)-N-methylpiperidine-4-carboxamide]	17
Cc1cc(F)ccc1[C@H]1CN(S(C)(=O)=O)CC[C@@H]1C(=O)N(C)[C@@H](C)c1cc(C(F)(F)F)cc(C(F)(F)F)c1 [Example 179, (3S,4S)—N-{(1S)-1-[3,5-bis(trifluoromethyl)phenyl]ethyl}-3-(4-fluoro-2-methylphenyl)-N-methyl-1-(methylsulfonyl)piperidine-4-carboxamide]	49
Cc1cc(F)ccc1[C@H]1CN(CCS(C)(=O)=O)CC[C@@H]1C(=O)N(C)[C@@H](C)c1cc(C(F)(F)F)cc(C(F)(F)F)c1 [Example 180, (3S,4S)—N-{(1S)-1-[3,5-bis(trifluoromethyl)phenyl]ethyl}-3-(4-fluoro-2-methylphenyl)-N-methyl-1-[2-(methylsulfonyl)ethyl]piperidine-4-carboxamide monohydrochloride]	23

Results, then the molecule that gave them:

IC50 [pM]	SMILES
20	Cc1cc(F)ccc1[C@H]1CN(C(=O)C2CCN(C(=O)[C@@H](C)O)CC2)CC[C@@H]1C(=O)N(C)Cc1cc(C(F)(F)F)cc(C(F)(F)F)c1 [Example 151, (3S,4S)—N-[3,5-bis(trifluoromethyl)benzyl]-3-(4-fluoro-2-methylphenyl)-1-({1-[(2R)-2-hydroxypropanoyl]piperidin-4-yl}carbonyl)-N-methylpiperidine-4-carboxamide]
15	Cc1cc(F)ccc1[C@H]1CN(C(=O)C2CCN(C(=O)CO)CC2)CC[C@@H]1C(=O)N(C)[C@@H](C)c1cc(C(F)(F)F)cc(C(F)(F)F)c1 [Example 152, (3S,4S)—N-{(1S)-1-[3,5-bis(trifluoromethyl)phenyl]ethyl}-3-(4-fluoro-2-methylphenyl)-1-[(1-glycoloylpiperidin-4-yl)carbonyl]-N-methylpiperidine-4-carboxamide]
